Tests used:
Assay type in all cases: cell-based
[1] = molecular target: T1, Glycine receptor subunit alpha-3 (Homo sapiens, UniProt O75311); test: Modulation of recombinant GlyR-alpha3 (unknown origin) expressed in HEK293 cells assessed as inhibition of glycine-induced current by automated planar patch-clamp automated electrophysiology assay
T1 sequence (O75311 whole entry): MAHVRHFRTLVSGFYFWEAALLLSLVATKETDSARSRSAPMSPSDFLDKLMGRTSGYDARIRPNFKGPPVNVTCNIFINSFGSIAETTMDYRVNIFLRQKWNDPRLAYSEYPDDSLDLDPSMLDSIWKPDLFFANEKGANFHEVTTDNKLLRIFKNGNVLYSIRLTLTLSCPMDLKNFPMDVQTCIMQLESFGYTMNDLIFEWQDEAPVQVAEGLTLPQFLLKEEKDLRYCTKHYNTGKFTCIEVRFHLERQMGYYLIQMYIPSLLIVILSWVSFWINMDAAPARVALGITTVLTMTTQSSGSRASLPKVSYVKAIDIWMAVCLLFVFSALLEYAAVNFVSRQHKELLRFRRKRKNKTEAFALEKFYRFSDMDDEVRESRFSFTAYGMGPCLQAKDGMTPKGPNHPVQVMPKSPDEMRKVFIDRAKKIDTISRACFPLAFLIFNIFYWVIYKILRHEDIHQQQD

[2] = molecular target: T2, Glycine receptor subunit alpha-1 (Homo sapiens, UniProt P23415); test: Modulation of recombinant GlyR-alpha1 (unknown origin) expressed in HEK293 cells assessed as inhibition of glycine-induced current by automated planar patch-clamp automated electrophysiology assay
T2 sequence (P23415 whole entry): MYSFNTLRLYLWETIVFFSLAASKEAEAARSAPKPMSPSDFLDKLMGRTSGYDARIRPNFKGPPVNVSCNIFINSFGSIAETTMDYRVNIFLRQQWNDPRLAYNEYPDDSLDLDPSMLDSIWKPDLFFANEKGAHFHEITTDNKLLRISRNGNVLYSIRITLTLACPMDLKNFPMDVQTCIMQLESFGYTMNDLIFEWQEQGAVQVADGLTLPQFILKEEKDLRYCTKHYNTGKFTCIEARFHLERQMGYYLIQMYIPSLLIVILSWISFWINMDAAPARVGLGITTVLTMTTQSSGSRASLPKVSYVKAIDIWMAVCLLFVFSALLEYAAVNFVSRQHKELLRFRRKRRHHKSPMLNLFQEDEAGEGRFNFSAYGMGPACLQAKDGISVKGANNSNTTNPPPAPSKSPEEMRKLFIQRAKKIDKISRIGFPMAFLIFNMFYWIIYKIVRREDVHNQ

[3] = molecular target: T3, Glycine receptor subunit alpha-1 (Homo sapiens) (UniProt P23415); test: Modulation of recombinant GlyR-alpha1 (unknown origin) expressed in HEK293 cells assessed as inhibition of glycine-induced current at 1 uM by automated planar patch-clamp automated electrophysiology assay
T3 sequence (whole entry): T2 sequence (P23415 whole entry)

Row | IC50 [1] [µM] | IC50 [2] [µM] | inhibition [3] [%] | Compound
1 | 67 | > 200 | – | CN1C(=O)/C(=C\c2c[nH]c3ccccc23)N(C)C1=O
2 | > 300 | 25.9 | 126 | CN1C(=N)N(C)[C@@]2(C1=O)c1[nH]c3ccccc3c1C[C@@]1(C(=O)N(C)C(=N)N1C)[C@@H]2c1c[nH]c2ccccc12
3 | 33.9 | 8.8 | – | CN1C(=O)NC(=O)/C1=C\c1c[nH]c2ccccc12
